Read-outs that look alike come from different tables or passages of the source.
Experiments:
Caco-2 cells = test: Caco2 assay (Papp A-B); type: in vitro ADME; conditions: test compound 50 μM, 120 min, 37° C.
Procedure: Caco-2 cells are grown at 37° C. in an atmosphere of 5% CO2 in DMEM growth medium supplemented with 10% (v/v) fetal bovine serum, 1% (v/v) nonessential amino acids, penicillin (100 U/mL), and streptomycin (100 μg/mL). Confluent cell monolayers are subcultured every 7 days or 4 days for Caco-2 by treatment with 0.05% trypsin containing […]. Caco-2 cells are seeded in 96-well Transwell plates. The seeding density for Caco-2 cells is 14,000 cells/well. DMEM growth medium is replaced every other day after seeding. Cell monolayers are used for transport assays between 22 and 25 days for Caco-2 cells.
Cell culture medium is removed and replaced with HBSS. To measure the TEER, the HBSS is added into the donor compartment (apical side) and receiver compartment (basolateral side). The TEER is measured by using a REMS Autosampler to ensure the integrity of the cell monolayers. Caco-2 cell monolayers with TEER values 300 Ω·cm^2 are used for transport experiments. To determine the Papp in the absorptive direction (A-B), solution of test compound (50 μM) in HBSS is added to the donor compartment (apical side), while HBSS solution with 4% BSA is added to the receiver compartment (basolateral side). The apical volume was 0.075 mL, and the basolateral volume is 0.25 mL. The incubation period is 120 min. at 37° C. in an atmosphere of 5% CO2. At the end of the incubation period, samples from the donor and receiver sides are removed and an equal volume of MeCN is added for protein precipitation. The supernatants are collected after centrifugation (3000 rpm, Allegra X-14R Centrifuge from Beckman Coulter, Indianapolis, IN) for LCMS analysis. The permeability value is determined according to the equation:
[formula] • where the flux rate (F, mass/time) is calculated from the slope of cumulative amounts of compound of interest on the receiver side, SA is the surface area of the cell membrane, VD is the donor volume, and MD is the initial amount of the solution in the donor chamber.
The symbol “+” indicates a Caco-2 value of ≤0.5, “++” indicates a Caco-2 value of >0.5 but ≤1; and “+++” indicates a Caco-2 value of >1. “NA” indicates IC50 not available.

KRAS G12V = KRAS G12V (Homo sapiens, UniProt P01116, G12V); test: GDP-GTP exchange assay (bodipy-GDP/GppNHp, SOS1), KRAS G12V; type: biochemical
Sequence of KRAS G12V (P01116 1-188 isoform P01116-2 G12V): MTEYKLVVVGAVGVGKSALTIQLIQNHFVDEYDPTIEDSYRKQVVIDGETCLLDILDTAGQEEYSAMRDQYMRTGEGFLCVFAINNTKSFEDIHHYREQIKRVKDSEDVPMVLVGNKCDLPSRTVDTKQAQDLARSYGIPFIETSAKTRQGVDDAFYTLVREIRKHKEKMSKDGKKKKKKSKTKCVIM

KRAS G12D = KRAS G12D (Homo sapiens, UniProt P01116, G12D); test: GDP-GTP exchange assay (bodipy-GDP/GppNHp, SOS1), KRAS G12D; type: biochemical
Sequence of KRAS G12D (P01116 1-188 isoform P01116-2 G12D): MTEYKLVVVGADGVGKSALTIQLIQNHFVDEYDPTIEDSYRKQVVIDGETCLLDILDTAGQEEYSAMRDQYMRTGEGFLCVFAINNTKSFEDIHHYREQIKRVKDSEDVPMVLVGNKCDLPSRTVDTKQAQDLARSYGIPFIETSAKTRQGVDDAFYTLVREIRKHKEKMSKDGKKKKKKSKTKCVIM

[1] = Table H, column G12V, for compounds isolated as several atropisomers/diastereoisomers the value for the most potent isomer is quoted, read-out: KRAS G12V exchange assay IC50
[2] = Table H, column G12D, for compounds isolated as several atropisomers/diastereoisomers the value for the most potent isomer is quoted, read-out: KRAS G12D exchange assay IC50

In the case of `COc1ncccc1O[C@H]1C[C@H](c2cc3c(C)nc4c(F)c(-c5cccc(Cl)c5Cl)c(CCC#N)cc4c3n2[C@H]2[C@H]3CN[C@@H]2C3)N(C(=O)C2CC2)C1` [Example 1, 3-(1-((1R,4R,5S)-2-Azabicyclo[2.1.1]hexan-5-yl)-2-((2R,4S)-1-(cyclopropanecarbonyl)-4-((2-methoxypyridin-3-yl)oxy)pyrrolidin-2-yl)-7-(2,3-dichlorophenyl)-6-fluoro-4-methyl-1H-pyrrolo[3,2-c]quinolin-8-yl)propanenitrile], the Caco-2 (Caco-2 cells) is reported as “+++ (a Caco-2 value of >1)”, the IC50 (KRAS G12V; [1]) is reported as at most 100 nM and the IC50 (KRAS G12D; [2]) is reported as at most 100 nM.
`Cc1nc2c(F)c(-c3cccc(Cl)c3Cl)c(CCC#N)cc2c2c1cc([C@H]1C[C@](C)(OCc3ccccc3)CN1C(=O)C1CC1)n2[C@H]1[C@H]2CN[C@@H]1C2` [Example 81, 3-(2-((2R,4S)-4-(Benzyloxy)-1-(cyclopropanecarbonyl)-4-methylpyrrolidin-2-yl)-1-((1R,4R,5S)-2-azabicyclo[2.1.1]hexan-5-yl)-7-(2,3-dichlorophenyl)-6-fluoro-4-methyl-1H-pyrrolo[3,2-c]quinolin-8-yl)propanenitrile] was tested, and the Caco-2 (Caco-2 cells) was “+++ (a Caco-2 value of >1)”, the IC50 (KRAS G12V; KRAS G12V mutant, value for the most potent isomer quoted for certain compounds, read-out: G12V (KRAS G12V exchange assay IC50)) was at most 100 nM and the IC50 (KRAS G12D; bodipy-loaded KRAS G12D 2.5 nM, 4 h pre-incubation, value for the most potent isomer quoted for certain compounds, read-out: G12D (KRAS G12D exchange assay IC50)) was at most 100 nM.
In the case of `Cc1nc2c(F)c(-c3cccc(Cl)c3Cl)c(CCC#N)cc2c2c1cc([C@H]1C[C@H](Oc3ccccn3)CN1C(=O)C1CC1)n2[C@H]1[C@H]2CN[C@@H]1C2` [Example 5, 3-(1-((1R,4R,5S)-2-Azabicyclo[2.1.1]hexan-5-yl)-2-((2R,4S)-1-(cyclopropanecarbonyl)-4-(pyridin-2-yloxy)pyrrolidin-2-yl)-7-(2,3-dichlorophenyl)-6-fluoro-4-methyl-1H-pyrrolo[3,2-c]quinolin-8-yl)propanenitrile], the Caco-2 (Caco-2 cells) is reported as “+++ (a Caco-2 value of >1)”, the IC50 (KRAS G12V; [1]) is reported as at most 100 nM and the IC50 (KRAS G12D; [2]) is reported as at most 100 nM.
In the case of `C[C@@H](O)c1nc2c(F)c(-c3cccc(Cl)c3Cl)c(CCC#N)cc2c2c1cc([C@H]1C[C@H](Oc3cc(C4CC4)on3)CN1C(=O)C1CC1)n2[C@H]1[C@H]2CN[C@@H]1C2` [Example 77, 3-(1-((1R,4R,5S)-2-Azabicyclo[2.1.1]hexan-5-yl)-2-((2R,4S)-1-(cyclopropanecarbonyl)-4-((5-cyclopropylisoxazol-3-yl)oxy)pyrrolidin-2-yl)-7-(2,3-dichlorophenyl)-6-fluoro-4-((R)-1-hydroxyethyl)-1H-pyrrolo[3,2-c]quinolin-8-yl)propanenitrile], the Caco-2 (Caco-2 cells) is reported as “+ (a Caco-2 value of ≤0.5)”, the IC50 (KRAS G12V; [1]) is reported as at most 100 nM and the IC50 (KRAS G12D; [2]) is reported as at most 100 nM.
`Cc1nc2c(F)c(-c3cccc(Cl)c3Cl)c(CCC#N)cc2c2c1cc([C@H]1C[C@H](OC3CCOCC3)CN1C(=O)C1CC1)n2[C@H]1[C@H]2CN[C@@H]1C2` [Example 22] was tested, and the Caco-2 (Caco-2 cells) was “+ (a Caco-2 value of ≤0.5)”, the IC50 (KRAS G12V; [1]) was at most 100 nM and the IC50 (KRAS G12D; [2]) was at most 100 nM.
With `COc1ccc(O[C@H]2C[C@H](c3cc4c([C@@H](C)O)nc5c(F)c(-c6cccc(Cl)c6Cl)c(CCC#N)cc5c4n3[C@H]3[C@H]4CN[C@@H]3C4)N(C(=O)C3CC3)C2)cn1` [Example 76, 3-(1-((1R,4R,5S)-2-Azabicyclo[2.1.1]hexan-5-yl)-2-((2R,4S)-1-(cyclopropanecarbonyl)-4-((6-methoxypyridin-3-yl)oxy)pyrrolidin-2-yl)-7-(2,3-dichlorophenyl)-6-fluoro-4-((R)-1-hydroxyethyl)-1H-pyrrolo[3,2-c]quinolin-8-yl)propanenitrile] the Caco-2 (Caco-2 cells) was “++ (a Caco-2 value of >0.5 but ≤1)”, the IC50 (KRAS G12V; [1]) was at most 100 nM and the IC50 (KRAS G12D; [2]) was at most 100 nM.
In the case of `CCc1c(-c2ccccc2)nnn1[C@H]1C[C@H](c2cc3c(C)nc4c(F)c(-c5cccc(Cl)c5Cl)c(CCC#N)cc4c3n2[C@H]2[C@H]3CN[C@@H]2C3)N(C(=O)C2CC2)C1` [Example 70, 3-(1-((1R,4R,5S)-2-Azabicyclo[2.1.1]hexan-5-yl)-2-((2R,4S)-1-(cyclopropanecarbonyl)-4-(5-ethyl-4-phenyl-1H-1,2,3-triazol-1-yl)pyrrolidin-2-yl)-7-(2,3-dichlorophenyl)-6-fluoro-4-methyl-1H-pyrrolo[3,2-c]quinolin-8-yl)propanenitrile], the Caco-2 (Caco-2 cells) is reported as “+ (a Caco-2 value of ≤0.5)”, the IC50 (KRAS G12V; [1]) is reported as at most 100 nM and the IC50 (KRAS G12D; [2]) is reported as at most 100 nM.
In the case of `Cc1nc2c(F)c(-c3cccc(Cl)c3Cl)c(CCC#N)cc2c2c1cc([C@H]1C[C@H](OCc3ccnn3C(F)F)CN1C(=O)C1CC1)n2[C@H]1[C@H]2CN[C@@H]1C2` [Example 8], the Caco-2 (Caco-2 cells) is reported as “+ (a Caco-2 value of ≤0.5)”, the IC50 (KRAS G12V; [1]) is reported as at most 100 nM and the IC50 (KRAS G12D; [2]) is reported as at most 100 nM.
`Cc1nc2c(F)c(-c3cccc(Cl)c3Cl)c(CCC#N)cc2c2c1cc([C@H]1C[C@H](OCc3cccc(C(F)(F)F)n3)CN1C(=O)C1CC1)n2[C@H]1[C@H]2CN[C@@H]1C2` [Example 10] was tested, and the Caco-2 (Caco-2 cells) was “++ (a Caco-2 value of >0.5 but ≤1)”, the IC50 (KRAS G12V; [1]) was at most 100 nM and the IC50 (KRAS G12D; [2]) was at most 100 nM.
In the case of `COc1cc(O[C@H]2C[C@H](c3cc4c(C(C)O)nc5c(F)c(-c6cccc(Cl)c6Cl)c(CCC#N)cc5c4n3[C@H]3[C@H]4CN[C@@H]3C4)N(C(=O)C3CC3)C2)ccn1` (stereo partly drawn) [Example 2, 3-(1-((1R,4R,5S)-2-Azabicyclo[2.1.1]hexan-5-yl)-2-((2R,4S)-1-(cyclopropanecarbonyl)-4-((2-methoxypyridin-4-yl)oxy)pyrrolidin-2-yl)-7-(2,3-dichlorophenyl)-6-fluoro-4-(1-hydroxyethyl)-1H-pyrrolo[3,2-c]quinolin-8-yl)propanenitrile], the Caco-2 (Caco-2 cells) is reported as “+++ (a Caco-2 value of >1)”, the IC50 (KRAS G12V; [1]) is reported as at most 100 nM and the IC50 (KRAS G12D; [2]) is reported as at most 100 nM.
`Cc1nc2c(F)c(-c3cccc(Cl)c3Cl)c(CCC#N)cc2c2c1cc([C@H]1C[C@H](OCc3ccccc3F)CN1C(=O)C1CC1)n2[C@H]1[C@H]2CN[C@@H]1C2` [Example 20] was tested, and the Caco-2 (Caco-2 cells) was “+ (a Caco-2 value of ≤0.5)”, the IC50 (KRAS G12V; [1]) was at most 100 nM and the IC50 (KRAS G12D; [2]) was at most 100 nM.
For `Cc1nc2c(F)c(-c3cccc(Cl)c3Cl)c(CCC#N)cc2c2c1cc([C@H]1C[C@H](Oc3ccnc4ccsc34)CN1C(=O)C1CC1)n2[C@H]1[C@H]2CN[C@@H]1C2` [Example 55, 3-(1-((1R,4R,5S)-2-Azabicyclo[2.1.1]hexan-5-yl)-2-((2R,4S)-1-(cyclopropanecarbonyl)-4-(thieno[3,2-b]pyridin-7-yloxy)pyrrolidin-2-yl)-7-(2,3-dichlorophenyl)-6-fluoro-4-methyl-1H-pyrrolo[3,2-c]quinolin-8-yl)propanenitrile], the Caco-2 (Caco-2 cells) was “+ (a Caco-2 value of ≤0.5)”, the IC50 (KRAS G12V; [1]) was at most 100 nM and the IC50 (KRAS G12D; [2]) was at most 100 nM.
For `COc1cccc(O[C@H]2C[C@H](c3cc4c(C)nc5c(F)c(-c6cccc(Cl)c6Cl)c(CCC#N)cc5c4n3[C@H]3[C@H]4CN[C@@H]3C4)N(C(=O)C3CC3)C2)c1` [Example 44, 3-(1-((1R,4R,5S)-2-Azabicyclo[2.1.1]hexan-5-yl)-2-((2R,4S)-1-(cyclopropanecarbonyl)-4-(3-methoxyphenoxy)pyrrolidin-2-yl)-7-(2,3-dichlorophenyl)-6-fluoro-4-methyl-1H-pyrrolo[3,2-c]quinolin-8-yl)propanenitrile], the Caco-2 (Caco-2 cells) was “+ (a Caco-2 value of ≤0.5)”, the IC50 (KRAS G12V; [1]) was at most 100 nM and the IC50 (KRAS G12D; [2]) was at most 100 nM.
In the case of `Cc1cc(CO[C@H]2C[C@H](c3cc4c(C)nc5c(F)c(-c6cccc(Cl)c6Cl)c(CCC#N)cc5c4n3[C@H]3[C@H]4CN[C@@H]3C4)N(C(=O)C3CC3)C2)no1` [Example 7], the Caco-2 (Caco-2 cells) is reported as “++ (a Caco-2 value of >0.5 but ≤1)”, the IC50 (KRAS G12V; [1]) is reported as at most 100 nM and the IC50 (KRAS G12D; [2]) is reported as at most 100 nM.
For `Cc1nc2c(F)c(-c3cccc(Cl)c3Cl)c(CCC#N)cc2c2c1cc([C@H]1C[C@H](n3cc(C4CCCCC4)nn3)CN1C(=O)C1CC1)n2[C@H]1[C@H]2CN[C@@H]1C2` [Example 69, 3-(1-((1R,4R,5S)-2-Azabicyclo[2.1.1]hexan-5-yl)-2-((2R,4S)-4-(4-cyclohexyl-1H-1,2,3-triazol-1-yl)-1-(cyclopropanecarbonyl)pyrrolidin-2-yl)-7-(2,3-dichlorophenyl)-6-fluoro-4-methyl-1H-pyrrolo[3,2-c]quinolin-8-yl)propanenitrile], the Caco-2 (Caco-2 cells) was “+ (a Caco-2 value of ≤0.5)”, the IC50 (KRAS G12V; [1]) was at most 100 nM and the IC50 (KRAS G12D; [2]) was at most 100 nM.
